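Cultured in 96-well plates, cells were exposed to test compound for 48 hours across five concentrations. The concentration for 50% growth inhibition is given as GI50. Definition used: TGI = concentration required for complete inhibition of growth.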
Key:
Assay in all cases: DTP human tumour cell line panel, 48 h
[1] = system: BT-549 breast
[2] = system: HCT-116 colon
[3] = system: NCI/ADR-RES ovarian
[4] = system: OVCAR-5 ovarian
[5] = system: SN12C renal
[6] = system: SR leukemia
[7] = system: T-47D breast

Cc1cn2c(/C=C3\C(=O)Nc4ccc(O)cc43)c(-c3ccc(Cl)cc3)nc2s1
GI50 [1]: 17.3 µM
TGI [1]: 41.5 µM
GI50 [2]: 15.6 µM
TGI [2]: 42.5 µM
GI50 [3]: 21.5 µM
TGI [3]: > 100 µM
GI50 [4]: 21.2 µM
TGI [4]: 51.4 µM
GI50 [5]: 10.4 µM
TGI [5]: 25.5 µM
GI50 [6]: 2.59 µM
TGI [6]: 7.63 µM
GI50 [7]: 8.96 µM
TGI [7]: 30.2 µM

CCSc1[nH]c(Nc2nc(-c3ccccc3)n(-c3ccccc3)n2)c(C(N)=O)c1C(N)=O
TGI [5]: > 10 µM
TGI [6]: > 10 µM
TGI [7]: > 10 µM

CCN1CCN=c2c3cc(OC)ccc3n3cnc4ccc1c2c43
TGI [2]: 0.194 µM
TGI [3]: 0.489 µM
TGI [4]: 0.929 µM
TGI [5]: 0.433 µM
TGI [6]: 0.158 µM
TGI [7]: 3.06 µM

C1CSCCSCCS1
TGI [1]: > 100 µM
TGI [2]: > 100 µM
TGI [3]: > 100 µM
TGI [4]: > 100 µM
TGI [5]: > 100 µM
TGI [6]: > 100 µM
TGI [7]: > 100 µM

C=CC(=O)N1CCC(C2CCNc3c(C(N)=O)c(-c4ccc(Oc5ccccc5)cc4)nn32)CC1 (configuration not stated)
GI50 [1]: 12.9 µM
TGI [1]: 52.4 µM
GI50 [2]: 17.6 µM
TGI [2]: 39.5 µM
GI50 [3]: 16.4 µM
TGI [3]: 61 µM
GI50 [4]: 31.2 µM
TGI [4]: > 100 µM
GI50 [5]: 13.4 µM
TGI [5]: > 100 µM
GI50 [6]: 10.4 µM
TGI [6]: 46.8 µM
GI50 [7]: 1.4 µM
TGI [7]: 28.4 µM

Oc1cc(O)c2c(c1)OC(c1ccc(O)c(O)c1)C(OC1(c3cc(O)c(O)c(O)c3)Oc3cc(O)cc(O)c3C(O)C1O)C2 (configuration not stated)
TGI [1]: > 83.6 µM
TGI [2]: 62 µM
TGI [3]: 99.9 µM
TGI [4]: 59.3 µM
TGI [5]: 46.2 µM
TGI [6]: 84.7 µM
TGI [7]: > 100 µM

N#Cc1c(-c2ccc(F)cc2)c(-c2ccc(F)cc2)nn(CCO)c1=O
TGI [1]: 39.9 µM
TGI [2]: 7.04 µM
TGI [3]: 22.5 µM
TGI [4]: > 100 µM
TGI [5]: > 100 µM
TGI [6]: > 100 µM
TGI [7]: > 100 µM

O=c1c2ccccc2sc2cccc(NCCCN3CCN(CCCNc4cccc5sc6ccccc6c(=O)c45)CC3)c12
TGI [2]: > 100 µM
TGI [3]: > 100 µM
TGI [4]: > 100 µM
TGI [5]: > 100 µM
TGI [6]: > 100 µM
TGI [7]: > 100 µM

O=C(CC(O)(C(F)(F)F)C(F)(F)F)c1cc(CC(=O)C(O)(C(F)(F)F)C(F)(F)F)cc(CC(=O)C(O)(C(F)(F)F)C(F)(F)F)c1
TGI [1]: 4.93 µM
TGI [2]: 2.56 µM
TGI [3]: > 6.65 µM
TGI [4]: > 9.25 µM
TGI [5]: 6.71 µM
TGI [6]: > 10 µM
TGI [7]: 4.26 µM

COc1cccc2c1C(=O)c1c(O)c3c(c(O)c1C2=O)CC(O)(/C(C)=N/NC(=O)CCC(=O)N/N=C(\C)C1(O)Cc2c(O)c4c(c(O)c2C(OC2CC(N)C(O)C(C)O2)C1)C(=O)c1c(OC)cccc1C4=O)CC3OC1CC(N)C(O)C(C)O1 (configuration not stated)
GI50 [1]: 0.671 µM
TGI [1]: 2.27 µM
GI50 [2]: 0.147 µM
TGI [2]: 0.914 µM
GI50 [3]: 13.5 µM
TGI [3]: > 50 µM
GI50 [4]: 1.02 µM
TGI [4]: 3.68 µM
GI50 [5]: 0.234 µM
TGI [5]: > 50 µM
GI50 [7]: 0.172 µM
TGI [7]: 1.68 µM

Cc1nc2ccccc2nc1-c1ccc(N=[N+]([O-])c2ccc(-c3nc4ccccc4nc3C)cc2)cc1
TGI [1]: > 100 µM
TGI [2]: > 100 µM
TGI [3]: > 100 µM
TGI [4]: > 100 µM
TGI [5]: > 100 µM
TGI [6]: > 100 µM
TGI [7]: > 100 µM

Nc1nccc2c1ccn2-c1ccc(NC(=O)c2ccc(N3CCOCC3)c(C(F)(F)F)c2)cc1
GI50 [1]: 1.03 µM
TGI [1]: 24.7 µM
GI50 [2]: 0.873 µM
TGI [2]: 11.1 µM
GI50 [3]: 4.87 µM
TGI [3]: 50.9 µM
GI50 [4]: 1.64 µM
TGI [4]: 20.6 µM
GI50 [5]: 4.86 µM
TGI [5]: 20.4 µM
GI50 [6]: 0.684 µM
TGI [6]: > 100 µM
GI50 [7]: 2.19 µM
TGI [7]: 19.2 µM

Cn1cnc([N+](=O)[O-])c1S(=O)(=O)Oc1ccccc1
GI50 [1]: 20.7 µM
TGI [1]: 45.4 µM
GI50 [2]: 5.37 µM
TGI [2]: 13.2 µM
GI50 [3]: 21.7 µM
TGI [3]: > 65.8 µM
GI50 [4]: 23.9 µM
TGI [4]: 74.9 µM
GI50 [5]: 21.5 µM
TGI [5]: > 71.7 µM
GI50 [7]: 2.3 µM
TGI [7]: 7.73 µM

O=c1cc2oc3cc(O)c(O)cc3c(-c3ccccc3O)c-2cc1O
GI50 [1]: 14.4 µM
TGI [1]: 40.3 µM
GI50 [2]: 3.81 µM
TGI [2]: 21.9 µM
GI50 [3]: 8.16 µM
TGI [3]: 42 µM
GI50 [4]: 44.6 µM
TGI [4]: > 100 µM
GI50 [5]: 10.7 µM
TGI [5]: > 100 µM
GI50 [6]: 4.65 µM
TGI [6]: > 100 µM
GI50 [7]: 9.51 µM
TGI [7]: > 100 µM

NS(=O)(=O)c1ccc(N(/C=C/C(=O)C(F)(F)F)CC(=O)c2ccc(Cl)cc2)cc1
GI50 [1]: 44.5 µM
TGI [1]: > 100 µM
GI50 [2]: 18.7 µM
TGI [2]: 40 µM
GI50 [3]: 47.6 µM
TGI [3]: > 100 µM
GI50 [4]: 57 µM
TGI [4]: > 100 µM
GI50 [5]: 29.3 µM
TGI [5]: > 100 µM
GI50 [7]: 63.6 µM
TGI [7]: > 100 µM

C[C@H]1Oc2cc(cnc2N)-c2c(nn(C)c2C#N)CN(C)C(=O)c2ccc(F)cc21
GI50 [1]: > 100 µM
TGI [1]: > 100 µM
GI50 [2]: 22.9 µM
TGI [2]: > 100 µM
GI50 [3]: 65.5 µM
TGI [3]: > 100 µM
GI50 [4]: 5.24 µM
TGI [4]: > 100 µM
GI50 [5]: 43.1 µM
TGI [5]: > 100 µM
TGI [6]: > 100 µM
GI50 [7]: 36.2 µM
TGI [7]: > 100 µM

COC12C=C/C(=C(/C(=O)OCc3ccncc3)C(=O)CCCCCCCCC3(OC)C=C/C(=C(/C(=O)OCc4ccncc4)C(=O)CCCCCCCC1)O3)O2
GI50 [1]: 0.638 µM
TGI [1]: 3.21 µM
GI50 [2]: 0.111 µM
TGI [2]: 0.239 µM
GI50 [3]: 0.774 µM
TGI [3]: 3.93 µM
GI50 [4]: 0.87 µM
TGI [4]: 4.6 µM
GI50 [5]: 0.471 µM
TGI [5]: 3.89 µM
GI50 [6]: 0.191 µM
TGI [6]: 7.01 µM
GI50 [7]: 0.706 µM
TGI [7]: 21.5 µM

CC1(C)OCCn2c1nc1c(N3CCOCC3)nc(-c3cnc(N)nc3)nc12
GI50 [1]: 0.183 µM
TGI [1]: 2.91 µM
GI50 [2]: 0.337 µM
TGI [2]: > 100 µM
GI50 [3]: 0.508 µM
TGI [3]: > 100 µM
GI50 [4]: 0.249 µM
TGI [4]: > 100 µM
GI50 [5]: 0.301 µM
TGI [5]: > 48.3 µM
GI50 [6]: 0.752 µM
TGI [6]: > 83.6 µM
GI50 [7]: 0.0325 µM
TGI [7]: 0.248 µM

CCCn1c(N)c(C(=O)N/N=C(/C)c2cc3cccc(OC)c3o2)sc1=S
GI50 [1]: 77.5 µM
TGI [1]: > 100 µM
GI50 [2]: 17.4 µM
TGI [2]: > 100 µM
GI50 [3]: 18.6 µM
TGI [3]: > 100 µM
GI50 [4]: > 100 µM
TGI [4]: > 100 µM
GI50 [5]: 45 µM
TGI [5]: > 100 µM
GI50 [6]: 8.66 µM
TGI [6]: > 100 µM
GI50 [7]: > 100 µM
TGI [7]: > 100 µM

Source: PubChem BioAssay (NCI)
